Assays:
[1] = system: MES-SA/DX5 multi-drug resistant human uterine sarcoma cell line; test: In vitro anti-cancer activity against MDR cell line MES-SA/DX5; type: cell-based; details: for IC50: MES-SA/DX5 cells, 72 hours, MTS
Method: (§1) The cell lines were maintained in RPM11640(GIBCO) supplemented with 10% FCS, 100 units/ml penicillin, 100 ug/ml streptomycin, and 2 mM L-glutamine. The cells were split every third day and diluted to a concentration of 2×10^5 cells/ml one day before experiment. All experiments were performed on exponentially growing cell culture. Cell densities were 2.5×10^4 cells/ml in all experiment.
(§2) A stock solution of Compound (1) was prepared by dissolving the compound at a concentration of 1 mM in 100% DMSO. Final concentrations were obtained by diluting the stock solution directly into the tissue culture medium. Cells were incubated with varying concentrations of compounds for 72 hours and the IC50 was determined by MTS (i.e. […]) assay. IC50 stands for the concentration of compound required to inhibit 50% tumor cell growth.
(§3) In vitro activity was determined in two MDR (Multi Drug Resistant) human cancer cell lines. HL-60/TX1000 was isolated in vitro by subculturing HL-60 in progressively higher concentration of Taxol. HL-60/TX1000 cells over-express mdr-1 mRNA and p-glycoprotein, as determined by western blot and immunofluorescence labeling with antiPGP antibodies. The cell is cross-resistant to Taxol, Vincristine, Adriamycin, Etoposide and Doxorubicin. MES-SA/Dx5 was established in the presence of increasing concentrations of Doxorubicin. […] MES-SA/Dx5 was purchased from ATCC.
(§4) The procedure for culturing the cells and assaying cancer cell growth inhibition were as described in Example 3.
(§5) The protocol described in Example 3 was used to assay inhibition by Compounds (2)-(10) on the growth of the multi-drug resistant cell lines MES-SA/DX5 and HL60/TX1000.

[2] = system: HL-60/TX1000 multi-drug resistant human myeloid leukemia cell line; test: In vitro anti-cancer activity against MDR cell line HL-60/TX1000; type: cell-based; details: for IC50: Homo sapiens, HL-60/TX1000 cells, 72 hours, MTS
Method: as §1, §2, §3, §4, §5

H2 (human leukemia) = test: In vitro anti-cancer activity, MTS assay, H2; type: cell-based; details: H2 cells, 72 hours
Method: (§6) The in vitro activity of the compounds was determined in the following […] human cancer cell lines. MDA435 (human breast cancer), HL-60 (human myeloid leukemia), DU-145 (human prostate cancer), MES-SA (human uterine sarcoma), H2 (human leukemia) were obtained from ATCC (American Type of Culture Collection).
as §1, §2

[3] = system: MES-SA (human uterine sarcoma); test: In vitro anti-cancer activity, MTS assay, MES-SA; type: cell-based; details: MES-SA cells, 72 hours
Method: as §6, §1, §2

MCF-7 human breast tumor = test: Tumor growth inhibition assay, human breast tumor (MCF-7) xenograft model; type: in vivo, nude mice (CD-1 nu/nu); details: nude mice; for tumor growth inhibition (FIG. 1): 3 times a week for 3 weeks
[4] = system: DU-145 (human prostate cancer); test: In vitro anti-cancer activity, MTS assay, DU-145; type: cell-based; details: DU-145 cells, 72 hours
Method: as §6, §1, §2

[5] = system: MDA435 (human breast cancer); test: In vitro anti-cancer activity, MTS assay, MDA435; type: cell-based; details: MDA-435 cells, 72 hours
Method: as §6, §1, §2

[6] = system: HL-60 (human myeloid leukemia); test: In vitro anti-cancer activity, MTS assay, HL-60; type: cell-based; details: HL-60 cells, 72 hours
Method: as §6, §1, §2

[7] = system: MDA435 human breast tumor; test: Tumor growth inhibition assay, human breast tumor (MDA435) xenograft model, oral treatment; type: in vivo, nude mice; details: for body weight change / loss: nude mice with MDA435 tumors, oral, Compound (5) 25 mg/kg, Compound (3) 50 mg/kg; for tumor growth inhibition (FIG. 2): nude mice, 3 times a week for 3 weeks

CSc1nnc(NC(=O)C(=O)c2cn(Cc3ccc(Cl)cc3)c3ccccc23)[nH]1 [(6)]
IC50 ([1]; Homo sapiens): 50 nM | IC50 ([2]; HL60/TX1000): 50 nM

CN(c1ccccc1)n1cc(C(=O)C(=O)Nc2ccc3ncccc3c2)c2ccccc21 [(8)]
IC50 ([1]; Homo sapiens, MES-SA/Dx5, 72 h): 100 nM | IC50 ([2]; HL60/TX1000, 72 h): 100 nM

NC(=O)c1ccc(NC(=O)C(=O)c2cn(Cc3ccc(Cl)cc3)c3ccccc23)nc1 [(4)]
IC50 ([1]; Homo sapiens): 50 nM | IC50 ([2]; HL60/TX1000): 50 nM

CC[C@]1(O)C[C@H]2CN(CCc3c([nH]c4ccccc34)[C@@](C(=O)OC)(c3cc4c(cc3OC)N(C=O)[C@H]3[C@@](O)(C(=O)OC)[C@H](OC(C)=O)[C@]5(CC)C=CCN6CC[C@]43[C@@H]65)C2)C1 [Vincristine, reference compound]
IC50 ([1]; Homo sapiens, MES-SA/Dx5, 72 h): 1000 to 5000 nM | IC50 [1]: 1000 nM

Cc1cc(NC(=O)C(=O)c2cn(Cc3ccc(Cl)cc3)c3ccccc23)sn1 [Compound (1), 2-(1-(4-Chloro-benzyl)-1-indol-3-yl)-N-(3-methyl-isothiazol-5-yl)-2-oxo-acetamide]
IC50 (H2 (human leukemia)): 5 nM | IC50 ([1]; Homo sapiens): 10 nM | anti-cancer activity against MDR cancer cell lines (in words) ([1]; MES-SA/DX5): high anti-cancer activity | anti-cancer activity against MDR cancer cell lines (in words) ([2]; HL-60/TX1000): high anti-cancer activity | IC50 ([2]; HL60/TX1000): 10 nM | IC50 [3]: 5 nM | tumor growth inhibition (FIG. 1) (MCF-7 human breast tumor; 7.5 mg/kg intravenously): significantly inhibits tumor growth | tumor growth inhibition (FIG. 1) (MCF-7 human breast tumor; 10 mg/kg intravenously): significantly inhibits tumor growth | toxicity (MCF-7 human breast tumor; 7.5 and 10 mg/kg): acceptable toxicity | reduction of volume of tumors (MCF-7 human breast tumor; intravenously every second day, 10 mg/kg): greater than 50% | IC50 [4]: 5 nM | IC50 [5]: 5 nM | IC50 [6]: 5 nM

N#Cc1ccc(Cn2cc(C(=O)C(=O)Nc3ccncc3)c3ccccc32)cc1 [(9)]
IC50 ([1]; Homo sapiens): 50 nM | IC50 ([2]; HL60/TX1000): 50 nM

Cc1cc(NC(=O)C(=O)c2cn(Cc3ccc(C#N)cc3)c3ccccc23)sn1 [Compound (2)]
IC50 ([1]; Homo sapiens): 5 nM | IC50 ([2]; HL60/TX1000): 5 nM

Cc1cc(NC(=O)C(=O)c2cn(Cc3ccc(Cl)cc3)c3ccccc23)no1 [(10)]
IC50 ([1]; Homo sapiens): 50 nM | IC50 ([2]; HL60/TX1000): 50 nM

NC(=O)c1ccc(NC(=O)C(=O)c2cn(Cc3ccc(Cl)cc3)c3ccccc23)cc1 [Compound (3)]
IC50 ([1]; Homo sapiens): 50 nM | IC50 ([2]; HL60/TX1000): 50 nM | body weight change / loss [7]: without showing significant body weight loss | tumor growth inhibition (FIG. 2) ([7]; 50 mg/kg orally by gavage): significantly inhibit tumor growth

O=C(Nc1ccc2ncccc2c1)C(=O)c1cn(Cc2ccc(Cl)cc2)c2ccccc12 [Compound (5)]
IC50 ([1]; Homo sapiens): 50 nM | IC50 ([2]; HL60/TX1000): 50 nM | body weight change / loss [7]: without showing significant body weight loss | tumor growth inhibition (FIG. 2) ([7]; 25 mg/kg orally by gavage): significantly inhibit tumor growth

O=C(Nc1ccon1)C(=O)c1cn(Cc2ccc(Cl)cc2)c2ccccc12 [(7)]
IC50 ([1]; Homo sapiens): 80 nM | IC50 ([2]; HL60/TX1000): 50 nM

— patent US20060004044A1, “3-glyoxylamideindoles for treating cancer” (Synta Pharmaceuticals Corp., priority 2001, published 2006)
